pIC50, pKd: −log10 of the molar value.

The nature of data set [1]: Metabolic stability assay in liver microsomes (MLM). In kind it is in vitro ADME, mouse. The settings on record: for half-life at 2 µM: mouse, liver microsomes. The method, then: (§1) Metabolic stability assay in liver microsomes. The stabilities of CDD-2110, CDD-2211, CDD-2212, CDD-2807, and CDD-3348 in liver microsomes with/without Uridine Diphosphate Glucuronic Acid (UDP-GA, a cofactor of UDP-glucuronosyltransferases) were performed and half-life was calculated as previously reported (36). Briefly, each CDD compound (2.0 μM) was incubated in the mouse or human liver microsomes (0.5 mg protein/mL) at 37°C in 1× PBS fortified with NADPH (1.0 mM) and with/without UDP-GA (2.5 mM). Alamethicin (25 µg/mL) as a pore forming agent was used for the glucuronidation (Table S2A). The samples were collected at specific time-points 0, 30, and 60 min in duplicate. The reactions were terminated by adding equivalent volume of ice-cold methanol (CH3OH) and vortexed. After centrifugation at 15000 g for 10 min, 3.0 μL of the supernatant was analyzed by Thermo TSQ Quantis MS coupled with a Thermo Vanquish UHPLC (San Jose, CA) equipped with a Luna C18 column (1 mm × 50 mm, 1.6 µm, Phenomenex, Torrance, CA). The column temperature was maintained at 40°C. CDD-2807 was monitored under the selected reaction monitoring (SRM) mode coupled with a positive electrospray ionization (ESI) source. The SRM ion pairs were 447→321 for CDD-2807.

The nature of data set [2]: Metabolic stability assay in liver microsomes (HLM). In kind it is in vitro ADME, human. The method, then: as §1
In another data set the test system is male mice. Description: Testis size of treated mice. In kind it is in vivo.
For a further data set, the target named is CLK1 (Homo sapiens, UniProt P49759). Briefly: NanoBRET target engagement intracellular kinase assay. In kind it is cell-based. Also on record: host or cells: HEK293 (HEK293T cultured). The method, then: (§2) NanoBRET Target Engagement intracellular kinase assay. HEK293T cells were cultured in […]
CLK1, sequence (P49759 whole entry, the tested form may be a part): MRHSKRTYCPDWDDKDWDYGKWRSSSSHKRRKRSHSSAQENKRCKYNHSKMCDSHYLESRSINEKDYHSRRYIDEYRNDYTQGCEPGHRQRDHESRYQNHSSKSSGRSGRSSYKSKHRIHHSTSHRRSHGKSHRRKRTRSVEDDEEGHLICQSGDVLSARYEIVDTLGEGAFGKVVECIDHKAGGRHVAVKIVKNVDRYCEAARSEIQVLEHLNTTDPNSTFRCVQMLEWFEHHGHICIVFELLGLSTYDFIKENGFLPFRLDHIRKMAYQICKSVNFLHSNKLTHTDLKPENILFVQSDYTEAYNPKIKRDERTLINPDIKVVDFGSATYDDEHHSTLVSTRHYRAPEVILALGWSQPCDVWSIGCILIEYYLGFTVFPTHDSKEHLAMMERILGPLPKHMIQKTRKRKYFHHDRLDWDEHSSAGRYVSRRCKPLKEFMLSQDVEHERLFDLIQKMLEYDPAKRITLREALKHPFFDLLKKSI
(§3) The cell line underwent authentication by short tandem repeat (STR) profiling at Cytogenetics and Cell Authentication Core (CCAC) at MD Anderson Cancer Center. NanoBRET Target Engagement intracellular kinase assay, K-10 assay (Cat. # N2641), K-9 assay (Cat. # N2631), transfection reagent FuGENE HD (Cat. # E2311), transfection carrier DNA (Cat. # E4881), NanoLuc-STK33 fusion vector (Cat. # NV2111), NanoLuc-RET fusion vector (Cat. # NV1951), NanoLuc-CLK1 fusion vector (Cat. # NV1131), NanoLuc-CLK2 fusion vector (Cat. # NV1141), and NanoLuc-CLK4 fusion vector (Cat. # NV1151) were purchased from Promega. The measurement of test compound engagement with cellular target protein was performed in a 384-well format according to manufacturer’s instructions. HEK293 cells were transiently transfected with NanoLuc (STK33, RET, CLK1, CLK2, and CLK4) fusion vectors. After 36 hours of transfection, cells were treated with a fixed concentration of tracer (recommended by Promega) followed by compounds (inhibitors) for 2 hours of incubation. To determine the test compound […]
(§4) 0.4 nM at a fixed tracer concentration. Staurosporine was measured in parallel as a positive control.
(§5) Freshly prepared NanoBRET Nano-Glo substrate plus extracellular NanoLuc inhibitor was then added to initiate the subsequent bioluminescence resonance energy transfer (BRET) measurements using a CLARIOstar Plus BMG LABTECH plate reader. Data analysis was done by measuring the ratio of acceptor emission to donor emission (BRET ratio) and normalized by subtracting no-tracer-control-background. IC50 values were obtained by nonlinear regression using a four-parameter equation in GraphPad Prism 7 (San Diego, CA).
On the technique in general: Bioluminescence resonance energy transfer reports proximity on the nanometre scale.

The target of a further data set is CLK2 (Homo sapiens, UniProt P49760). Described as above. In kind it is cell-based. Also noted: host or cells: HEK293 (HEK293T cultured). The method, then: as §2, §3, §4, §5
CLK2, sequence (P49760 whole entry): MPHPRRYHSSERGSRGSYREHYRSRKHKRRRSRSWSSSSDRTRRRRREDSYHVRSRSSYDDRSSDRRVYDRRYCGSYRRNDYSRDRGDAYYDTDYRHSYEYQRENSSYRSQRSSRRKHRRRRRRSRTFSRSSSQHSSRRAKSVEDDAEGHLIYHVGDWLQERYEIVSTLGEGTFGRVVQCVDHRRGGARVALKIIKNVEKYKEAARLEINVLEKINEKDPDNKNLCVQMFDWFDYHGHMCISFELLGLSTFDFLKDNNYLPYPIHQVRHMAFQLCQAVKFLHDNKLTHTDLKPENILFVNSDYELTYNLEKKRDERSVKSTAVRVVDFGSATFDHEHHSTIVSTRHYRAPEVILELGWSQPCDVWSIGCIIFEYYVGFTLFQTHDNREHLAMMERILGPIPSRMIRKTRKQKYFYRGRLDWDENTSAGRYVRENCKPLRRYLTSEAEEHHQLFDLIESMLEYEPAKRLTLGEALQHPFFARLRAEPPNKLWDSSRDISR
The target in data set [3] is T1, CLK4 (Homo sapiens, UniProt Q9HAZ1). The description is as above. In kind it is cell-based. Also on record: host or cells: HEK293 (HEK293T cultured). The method, then: as §2, §3, §4, §5
T1 sequence (Q9HAZ1 whole entry): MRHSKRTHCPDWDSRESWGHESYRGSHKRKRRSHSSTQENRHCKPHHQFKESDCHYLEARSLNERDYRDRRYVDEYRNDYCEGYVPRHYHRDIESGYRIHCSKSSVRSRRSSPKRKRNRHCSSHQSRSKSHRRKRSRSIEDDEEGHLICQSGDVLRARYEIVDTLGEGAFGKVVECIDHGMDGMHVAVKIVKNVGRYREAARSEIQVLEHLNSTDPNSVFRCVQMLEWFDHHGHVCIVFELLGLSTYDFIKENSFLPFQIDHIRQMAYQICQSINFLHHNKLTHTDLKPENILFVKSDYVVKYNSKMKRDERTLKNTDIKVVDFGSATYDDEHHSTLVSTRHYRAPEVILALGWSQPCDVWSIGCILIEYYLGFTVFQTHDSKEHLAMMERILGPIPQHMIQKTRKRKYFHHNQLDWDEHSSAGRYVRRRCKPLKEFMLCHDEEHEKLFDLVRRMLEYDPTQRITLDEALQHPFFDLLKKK
For a further data set, the target named is RET (Homo sapiens, UniProt P07949). The description is as above. In kind it is cell-based. Also noted: host or cells: HEK293 (HEK293T cultured). The method, then: as §2, §3, §4, §5
RET, sequence (P07949 29-1114): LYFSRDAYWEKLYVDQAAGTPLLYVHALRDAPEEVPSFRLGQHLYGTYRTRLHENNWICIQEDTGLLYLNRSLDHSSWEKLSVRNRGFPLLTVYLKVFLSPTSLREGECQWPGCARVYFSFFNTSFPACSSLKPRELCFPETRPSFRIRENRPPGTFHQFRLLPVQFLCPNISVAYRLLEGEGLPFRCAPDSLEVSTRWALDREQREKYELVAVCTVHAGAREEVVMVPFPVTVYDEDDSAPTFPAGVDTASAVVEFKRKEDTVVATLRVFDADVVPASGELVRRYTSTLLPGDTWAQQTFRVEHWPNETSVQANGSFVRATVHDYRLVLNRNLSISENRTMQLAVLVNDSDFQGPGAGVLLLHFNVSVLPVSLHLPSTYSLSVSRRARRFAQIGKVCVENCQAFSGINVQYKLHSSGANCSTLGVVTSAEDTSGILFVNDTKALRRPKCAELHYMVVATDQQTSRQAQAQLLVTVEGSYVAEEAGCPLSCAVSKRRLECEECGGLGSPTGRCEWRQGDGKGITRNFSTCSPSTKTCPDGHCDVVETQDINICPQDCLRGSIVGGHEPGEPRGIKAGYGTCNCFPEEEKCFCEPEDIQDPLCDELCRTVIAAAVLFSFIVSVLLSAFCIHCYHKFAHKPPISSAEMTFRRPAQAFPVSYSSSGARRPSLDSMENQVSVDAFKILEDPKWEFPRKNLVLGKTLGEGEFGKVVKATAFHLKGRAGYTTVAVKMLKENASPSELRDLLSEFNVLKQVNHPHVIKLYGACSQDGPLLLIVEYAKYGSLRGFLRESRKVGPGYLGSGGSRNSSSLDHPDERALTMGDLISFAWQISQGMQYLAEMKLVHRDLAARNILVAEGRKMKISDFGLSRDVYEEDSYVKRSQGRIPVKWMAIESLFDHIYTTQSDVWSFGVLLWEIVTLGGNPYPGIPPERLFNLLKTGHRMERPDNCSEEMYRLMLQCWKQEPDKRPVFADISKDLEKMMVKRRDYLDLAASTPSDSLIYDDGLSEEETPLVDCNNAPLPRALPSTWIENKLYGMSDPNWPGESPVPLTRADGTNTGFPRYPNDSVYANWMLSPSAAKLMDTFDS
The target in data set [4] is T2, STK33 (Homo sapiens, UniProt Q9BYT3). The description is as above. In kind it is cell-based. Also noted: host or cells: HEK293 (HEK293T cultured). The method, then:
as §2, §3, §4, §5

Data set [5] has as its target T2, STK33. Description: LanthaScreen binding assay (ThermoFisher SelectScreen). Also on record: purchased SelectScreen Services (ThermoFisher). The text has this:
(§6) In vitro biochemical assays. Several small molecule assays were outsourced to SelectScreen Services (ThermoFisher) for STK33 and for off-target kinases (data sets are available on demand).
(§7) These assays are LanthaScreen (binding assay) and Z’-LYTE (activity assay). Dose-responses were done with at least 5 different concentrations in duplicates, and parameters were optimized by calculations described below and provided with standard errors.
(§8) Calculation of Kd values for kinase inhibitors that bind to the ATP pocket of a kinase from LanthaScreen binding data. DynaFit (71) was used to fit complex equilibria where a tracer is displaced by a dilution series of a kinase inhibitor. This method relies on the concentration of inhibitor, as well as the concentration of kinase and tracer, and Kd of the tracer. The latter three parameters are tabulated by ThermoFisher for each kinase in the LanthaScreen assay panel. […]
Since Kd and Ki values are defined the same way, in other words, Kd = [E] [I] / [EI] = Ki, Kd and Ki values can be compared. […]
(In TR-FRET formats the signal depends on donor and acceptor labels being close together.)

Data set [6] addresses T1, CLK4. Described as above. Also on record: purchased SelectScreen Services (ThermoFisher).
From the text: as §6, §7, §8

Where [7] appears, read: HEK293 cells, 2 hours incubation.

T2 sequence (Q9BYT3 whole entry): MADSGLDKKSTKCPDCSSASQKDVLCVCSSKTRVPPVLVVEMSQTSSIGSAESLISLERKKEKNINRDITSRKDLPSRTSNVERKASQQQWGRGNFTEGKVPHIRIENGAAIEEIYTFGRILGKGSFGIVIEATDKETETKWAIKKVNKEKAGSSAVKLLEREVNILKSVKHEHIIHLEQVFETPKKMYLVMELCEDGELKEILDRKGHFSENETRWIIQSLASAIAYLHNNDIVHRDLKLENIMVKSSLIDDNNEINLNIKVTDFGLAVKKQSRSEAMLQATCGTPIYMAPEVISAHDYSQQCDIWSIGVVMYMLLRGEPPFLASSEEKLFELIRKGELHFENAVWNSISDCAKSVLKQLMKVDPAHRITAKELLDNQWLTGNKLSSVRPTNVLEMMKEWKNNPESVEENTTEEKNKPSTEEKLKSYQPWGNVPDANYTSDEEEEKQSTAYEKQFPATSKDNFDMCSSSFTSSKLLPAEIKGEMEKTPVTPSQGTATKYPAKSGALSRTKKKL

The pIC50 is the negative decadic logarithm of the IC50, by convention in mol/L. The term pKd denotes the negative decadic logarithm of the Kd, by convention in mol/L. Lower therefore signals a high Kd. Take `O=C(c1ccc2[nH]nc(C#Cc3ccccc3-c3ccccc3)c2c1)N1CC2(CCCNC2)C1` [CDD-2807]: the “Metabolic stability MLM, t1/2” value in [1] (2.0 µM, 0.5 mg protein/mL, NADPH, data >60 min is an extrapolated estimate) was above 1 h. For the same molecule, the “Metabolic stability in MLM” value in [1] (Phase I metabolism) is ~ 1 hour; in [1] (Phases I and II metabolism), ~ 50 minutes. For the same molecule, the half-life at 2 µM in [1] (2.0 µM, 0.5 mg protein/mL, NADPH, data >60 min is an extrapolated estimate, read-out: Metabolic stability MLM, t1/2) is 1.18 h; in [1] (NADPH with UDP-GA (2.5 mM), alamethicin, read-out: MLM, t1/2, liver microsomes with glucuronidation), 0.833 h; in data set [2] (human, liver microsomes, NADPH with UDP-GA (2.5 mM), alamethicin, read-out: HLM, t1/2, liver microsomes with glucuronidation), 6.47 h. Moreover, the “Metabolic stability in HLM” value in data set [2] (Phase I metabolism) is on record as ~ 10 hours; in data set [2] (Phases I and II metabolism) it was ~ 6 hours. For the same molecule, the testis size entry in the data set with male mice (50 mg/kg/day for 7 days (Protocol 3)) is reported as “did not alter”; in the data set with male mice (protocol 1 at day 45), “normal”; in the data set with male mice (protocol 2 at 63 days) it was 87.13 ± 5.87 mg. Also, the negative-log IC50 (pIC50) at CLK1 (setting [7]) was 6.94; on CLK2 (setting [7]), 7.00; at CLK4 [3] (setting [7]), 7.07; on RET (setting [7]), 6.44; at STK33 [4] (setting [7]) it was 8.04. The “Fold NanoBRET IC50 CLK1 over STK33 (in parentheses)” value on CLK1 (selectivity vs STK33) came to 13 X. In addition, the “Fold NanoBRET IC50 CLK2 over STK33 (in parentheses)” value on CLK2 (selectivity vs STK33) is listed as 11 X. Besides, the “Fold NanoBRET IC50 CLK4 over STK33 (in parentheses)” value on CLK4 [3] (selectivity vs STK33) turned out to be 9 X. The “Fold NanoBRET IC50 RET over STK33 (in parentheses)” value at RET (selectivity vs STK33) was 39 X. Also, the “selectivity toward STK33 compared to CLK1, CLK2, CLK4, and RET” value on STK33 [4] is above 9 fold. The negative logarithm of the Kd (pKd) on STK33 [5] was 10.70; at CLK4 [6], 9.05.
